Measured values as given in ChEMBL document CHEMBL4311961, “Inhaled Janus Kinase (JAK) inhibitors for the treatment of asthma” (Bioorg Med Chem Lett, 2019).
In brackets after ≈: the same amount, converted by molar mass.

Columns and labels:
[1] = biological target: Janus Kinase (JAK) (Homo sapiens) (UniProt P52333+P23458+O60674+P29597)
Description: Binding affinity to JAK in human PBMC assessed as half life measured after compound washout was out

[2] = system: Mus musculus; experiment: In vivo inhibition of IL13 induced STAT6 phosphorylation in mouse lung administered as i.t dose relative to ocntrol; format: functional
[3] = Dissociation constant, pKa of compound; format: physicochemical
[4] = Apparent permeability from apical to basolateral side in MDCK cells; format: ADME, cell-based, Canis lupus familiaris; conditions: dog
[5] = Kinetic solubility of the compound at pH 7.4; format: physicochemical; conditions: buffer, read-out: Kinetic_solubility
[6] = system: Rattus norvegicus; experiment: In vivo inhibition of eosinophils in rat bronchoalveolar lavage fluid at 0.6 ug/kg administered as dry powder inhalation relative to control; format: functional; conditions: inhaled or nasal
[7] = system: Rattus norvegicus; experiment: In vivo inhibition of eosinophils in rat bronchoalveolar lavage fluid at 4.76 ug/kg administered as dry powder inhalation relative to control; format: functional; conditions: inhaled or nasal

CCc1cc(O)c(F)cc1-c1ccc2c(-c3nc4c([nH]3)CCN(C(=O)c3cnc(N5CCCCC5)cn3)C4)n[nH]c2c1
T1/2 [1]: 9 h

CCc1cc(O)c(F)cc1-c1ccc2c(-c3nc4c([nH]3)CCN(C3CCN(C)CC3)C4)n[nH]c2c1
inhibition (INH) [2]: 60% | pKa [3]: 10.5

CN(CCC#N)C1CCN(C(=O)Cn2cc(NC(=O)c3cnn4cccnc34)c(-c3cc(Cl)ccc3OC(F)F)n2)CC1
Papp A→B [4]: 2.7 ×10⁻⁶ cm/s | solubility kinetic [5]: 34 µM (≈ 20.8 µg/mL)

COC[C@H](C(=O)Nc1cccc2c(-c3nc(Nc4cccc(S(C)(=O)=O)c4F)ncc3F)c[nH]c12)N1CCN(C)CC1 [LONDAMOCITINIB]
inhibition in vivo at 0.0006 mg/kg [6]: 68% | inhibition in vivo at 0.00476 mg/kg [7]: 61%
